Read-outs that look alike come from different tables or passages of the source.
How the values were obtained:
OAT1 = biological target: T1, OAT1 (Homo sapiens, UniProt Q4U2R8); assay: OAT1 inhibitor (IC50) assessment, PAH uptake in transfected HEK cells; format: in vitro ADME
T1 construct: expressed in transfected cells; host or cells: HEK293
T1 sequence (Q4U2R8 1-563): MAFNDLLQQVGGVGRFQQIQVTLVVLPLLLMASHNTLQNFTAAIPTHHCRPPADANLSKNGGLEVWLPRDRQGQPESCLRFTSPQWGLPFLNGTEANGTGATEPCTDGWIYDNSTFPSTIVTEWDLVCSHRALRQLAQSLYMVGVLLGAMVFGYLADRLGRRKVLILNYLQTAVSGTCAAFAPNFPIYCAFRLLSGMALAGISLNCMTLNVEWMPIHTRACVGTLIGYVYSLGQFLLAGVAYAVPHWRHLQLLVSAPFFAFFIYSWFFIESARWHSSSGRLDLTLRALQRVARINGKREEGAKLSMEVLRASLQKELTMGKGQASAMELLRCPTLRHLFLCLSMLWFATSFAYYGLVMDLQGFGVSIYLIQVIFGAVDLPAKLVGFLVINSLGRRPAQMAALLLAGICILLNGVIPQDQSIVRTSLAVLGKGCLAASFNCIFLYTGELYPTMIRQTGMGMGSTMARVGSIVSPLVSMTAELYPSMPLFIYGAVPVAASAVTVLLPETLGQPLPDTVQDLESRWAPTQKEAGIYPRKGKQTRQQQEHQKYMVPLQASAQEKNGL

MATE2K = MATE2K (Homo sapiens, UniProt Q86VL8)
[1] = biological target: T2, human liver microsomes (HLM) (Homo sapiens, UniProt P10635); assay: CYP reaction phenotyping using HLM and chemical inhibitors (% remaining); format: in vitro ADME; settings: human, microsomes, 5 μM, pH 7.4
T2 construct: from tissue; host or cells: pooled human liver microsomes
From the text: (§1) % Remaining of TA=100×At/A0
(§2) Where, At and A0 are the peak area ratio of TA to IS at time t and at time zero, respectively.

[2] = tested on: human liver microsomes (HLM); assay: as above; format: in vitro ADME; settings: human, microsomes, 5 μM, pH 7.4
From the text: as §1, §2

[3] = biological target: T3, human liver microsomes (HLM) (Homo sapiens, UniProt P33261); assay: as above; format: in vitro ADME
T3 construct: from tissue; host or cells: pooled human liver microsomes
From the text: as §1, §2

[4] = biological target: T4, human liver microsomes (HLM) (Homo sapiens, UniProt P11712); assay: as above; format: in vitro ADME; settings: human, microsomes, 5 μM, pH 7.4
T4 construct: from tissue; host or cells: pooled human liver microsomes
From the text: as §1, §2

[5] = biological target: T5, human liver microsomes (HLM) (Homo sapiens, UniProt P05177); assay: as above; format: in vitro ADME; settings: human, microsomes, 5 μM, pH 7.4
T5 construct: from tissue; host or cells: pooled human liver microsomes
T5 sequence (P05177 1-516): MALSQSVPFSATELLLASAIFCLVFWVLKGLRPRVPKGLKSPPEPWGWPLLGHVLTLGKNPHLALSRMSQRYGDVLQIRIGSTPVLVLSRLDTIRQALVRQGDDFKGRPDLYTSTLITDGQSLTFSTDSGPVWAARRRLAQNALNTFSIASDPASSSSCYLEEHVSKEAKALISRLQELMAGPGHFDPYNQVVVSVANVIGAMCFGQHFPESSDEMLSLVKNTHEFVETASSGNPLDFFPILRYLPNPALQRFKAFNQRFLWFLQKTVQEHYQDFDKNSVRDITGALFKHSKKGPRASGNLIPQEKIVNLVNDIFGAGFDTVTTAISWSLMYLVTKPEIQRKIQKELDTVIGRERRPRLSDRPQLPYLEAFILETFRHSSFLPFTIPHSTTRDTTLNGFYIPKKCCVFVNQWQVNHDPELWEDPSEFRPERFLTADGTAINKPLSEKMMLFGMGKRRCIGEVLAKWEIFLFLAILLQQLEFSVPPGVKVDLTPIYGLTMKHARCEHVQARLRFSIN
From the text: as §1, §2

P-gp = P-gp (Homo sapiens, UniProt P08183); assay: P-gp IC50 assessment, bidirectional digoxin transport in C2BBe1 cells
Procedure: After 30 minutes, the pre-incubation solution was aspirated.

[6] = Human Plasma Protein Binding; format: in vitro ADME
OATP1B1 = biological target: T6, OATP1B1 (Homo sapiens, UniProt Q9Y6L6)
T6 sequence (Q9Y6L6 1-691): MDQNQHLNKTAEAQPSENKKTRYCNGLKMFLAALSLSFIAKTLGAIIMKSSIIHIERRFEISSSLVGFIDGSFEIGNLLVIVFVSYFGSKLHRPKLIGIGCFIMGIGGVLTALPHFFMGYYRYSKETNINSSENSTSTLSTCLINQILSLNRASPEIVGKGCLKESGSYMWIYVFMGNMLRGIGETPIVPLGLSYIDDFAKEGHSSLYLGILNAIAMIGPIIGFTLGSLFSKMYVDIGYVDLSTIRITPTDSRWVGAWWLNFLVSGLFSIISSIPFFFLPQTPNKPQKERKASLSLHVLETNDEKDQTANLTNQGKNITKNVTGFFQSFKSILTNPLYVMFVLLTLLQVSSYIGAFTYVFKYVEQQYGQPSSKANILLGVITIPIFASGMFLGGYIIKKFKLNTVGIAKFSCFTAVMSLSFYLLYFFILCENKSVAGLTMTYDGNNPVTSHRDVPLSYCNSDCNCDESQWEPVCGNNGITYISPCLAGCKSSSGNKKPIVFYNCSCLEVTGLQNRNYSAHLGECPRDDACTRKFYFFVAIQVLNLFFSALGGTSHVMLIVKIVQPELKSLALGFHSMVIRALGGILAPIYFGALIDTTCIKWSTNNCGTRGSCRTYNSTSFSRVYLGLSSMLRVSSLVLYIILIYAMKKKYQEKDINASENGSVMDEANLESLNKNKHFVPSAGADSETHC

[7] = male, CD (Sprague-Dawley) IGS, rat, in vivo
[8] = TUDCA and PB present simultaneously, PAH uptake, HEK cells, read-out: estimated IC50 toward OAT1
[9] = previous study (Example 6), converted, read-out: IC50 for in vitro inhibition of human OAT1
[10] = human, microsomes, 0 h, 5 μM, pH 7.4
[11] = human, microsomes, 5 min, 5 μM, pH 7.4
[12] = human, microsomes, 20 min, 5 μM, pH 7.4
[13] = human, microsomes, 1 h, 5 μM, pH 7.4

T3 sequence (P33261 whole entry): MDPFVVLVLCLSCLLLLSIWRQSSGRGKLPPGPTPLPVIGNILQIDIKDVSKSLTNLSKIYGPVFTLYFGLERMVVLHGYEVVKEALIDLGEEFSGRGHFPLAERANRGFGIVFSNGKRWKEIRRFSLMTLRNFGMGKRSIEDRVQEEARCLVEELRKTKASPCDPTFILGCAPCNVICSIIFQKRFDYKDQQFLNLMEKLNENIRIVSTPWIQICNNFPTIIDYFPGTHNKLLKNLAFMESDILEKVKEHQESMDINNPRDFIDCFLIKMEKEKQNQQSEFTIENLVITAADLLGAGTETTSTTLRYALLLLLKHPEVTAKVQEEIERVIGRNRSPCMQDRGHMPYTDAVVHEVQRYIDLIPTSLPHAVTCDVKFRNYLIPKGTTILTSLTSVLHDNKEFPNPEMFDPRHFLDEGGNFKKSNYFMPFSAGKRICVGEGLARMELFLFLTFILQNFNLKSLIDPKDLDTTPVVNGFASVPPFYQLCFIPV
T4 sequence (P11712 whole entry): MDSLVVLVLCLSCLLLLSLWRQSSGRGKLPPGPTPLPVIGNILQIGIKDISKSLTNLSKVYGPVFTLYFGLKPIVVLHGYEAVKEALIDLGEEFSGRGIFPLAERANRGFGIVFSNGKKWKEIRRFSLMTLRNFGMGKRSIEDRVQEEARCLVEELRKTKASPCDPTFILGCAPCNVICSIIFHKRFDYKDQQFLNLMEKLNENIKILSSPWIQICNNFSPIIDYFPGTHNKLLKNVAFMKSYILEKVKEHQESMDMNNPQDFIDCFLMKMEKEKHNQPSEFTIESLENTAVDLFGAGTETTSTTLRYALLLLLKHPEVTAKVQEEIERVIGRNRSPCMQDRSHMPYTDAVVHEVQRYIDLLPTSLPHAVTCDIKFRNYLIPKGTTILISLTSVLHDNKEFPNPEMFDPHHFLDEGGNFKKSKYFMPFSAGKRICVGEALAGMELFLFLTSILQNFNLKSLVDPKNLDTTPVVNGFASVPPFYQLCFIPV
T2 sequence (P10635 whole entry): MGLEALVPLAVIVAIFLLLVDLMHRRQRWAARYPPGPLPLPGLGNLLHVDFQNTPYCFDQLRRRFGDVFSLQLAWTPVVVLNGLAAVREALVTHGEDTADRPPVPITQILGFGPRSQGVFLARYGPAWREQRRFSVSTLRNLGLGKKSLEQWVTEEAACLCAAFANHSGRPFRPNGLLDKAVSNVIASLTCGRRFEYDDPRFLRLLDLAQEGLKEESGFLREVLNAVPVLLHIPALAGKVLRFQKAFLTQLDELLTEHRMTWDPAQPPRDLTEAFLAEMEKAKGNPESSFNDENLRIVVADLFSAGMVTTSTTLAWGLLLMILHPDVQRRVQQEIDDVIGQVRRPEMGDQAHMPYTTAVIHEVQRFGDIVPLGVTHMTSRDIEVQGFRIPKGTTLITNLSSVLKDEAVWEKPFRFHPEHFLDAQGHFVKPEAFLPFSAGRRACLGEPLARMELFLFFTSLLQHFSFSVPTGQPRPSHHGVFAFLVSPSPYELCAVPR
Chain of P-gp (P08183 whole entry): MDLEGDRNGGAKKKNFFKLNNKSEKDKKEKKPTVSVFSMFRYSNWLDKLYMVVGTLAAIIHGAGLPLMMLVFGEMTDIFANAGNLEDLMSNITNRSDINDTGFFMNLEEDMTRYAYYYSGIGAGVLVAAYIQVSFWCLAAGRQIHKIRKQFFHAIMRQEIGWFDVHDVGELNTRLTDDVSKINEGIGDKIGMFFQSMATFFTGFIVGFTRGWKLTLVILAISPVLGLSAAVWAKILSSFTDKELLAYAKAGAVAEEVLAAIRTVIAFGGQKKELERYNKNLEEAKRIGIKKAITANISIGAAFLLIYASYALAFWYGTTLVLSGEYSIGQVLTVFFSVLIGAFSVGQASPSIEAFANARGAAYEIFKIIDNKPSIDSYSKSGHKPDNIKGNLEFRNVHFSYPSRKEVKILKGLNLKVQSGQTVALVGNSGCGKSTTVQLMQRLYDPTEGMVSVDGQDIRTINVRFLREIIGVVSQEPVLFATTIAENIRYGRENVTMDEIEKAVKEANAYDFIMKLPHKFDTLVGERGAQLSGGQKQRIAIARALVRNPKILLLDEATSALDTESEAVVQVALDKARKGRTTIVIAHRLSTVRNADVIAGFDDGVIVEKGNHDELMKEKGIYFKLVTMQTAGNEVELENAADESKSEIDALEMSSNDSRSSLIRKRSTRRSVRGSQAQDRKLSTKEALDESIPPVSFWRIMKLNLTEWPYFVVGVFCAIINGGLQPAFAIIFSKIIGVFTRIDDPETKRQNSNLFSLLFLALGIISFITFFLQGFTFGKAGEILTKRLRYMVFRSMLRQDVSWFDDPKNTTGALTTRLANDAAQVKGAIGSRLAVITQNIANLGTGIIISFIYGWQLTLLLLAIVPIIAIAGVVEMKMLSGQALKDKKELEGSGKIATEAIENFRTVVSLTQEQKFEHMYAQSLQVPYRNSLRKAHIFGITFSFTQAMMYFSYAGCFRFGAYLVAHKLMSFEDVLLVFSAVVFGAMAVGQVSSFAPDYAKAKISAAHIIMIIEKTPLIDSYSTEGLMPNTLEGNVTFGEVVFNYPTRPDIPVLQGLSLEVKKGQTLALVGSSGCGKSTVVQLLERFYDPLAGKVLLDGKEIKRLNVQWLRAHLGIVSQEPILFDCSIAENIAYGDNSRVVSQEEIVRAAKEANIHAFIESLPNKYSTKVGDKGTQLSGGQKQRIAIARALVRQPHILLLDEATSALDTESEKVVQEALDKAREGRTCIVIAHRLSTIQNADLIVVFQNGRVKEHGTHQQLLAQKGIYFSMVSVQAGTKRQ
Chain of MATE2K (Q86VL8 1-566 isoform Q86VL8-3): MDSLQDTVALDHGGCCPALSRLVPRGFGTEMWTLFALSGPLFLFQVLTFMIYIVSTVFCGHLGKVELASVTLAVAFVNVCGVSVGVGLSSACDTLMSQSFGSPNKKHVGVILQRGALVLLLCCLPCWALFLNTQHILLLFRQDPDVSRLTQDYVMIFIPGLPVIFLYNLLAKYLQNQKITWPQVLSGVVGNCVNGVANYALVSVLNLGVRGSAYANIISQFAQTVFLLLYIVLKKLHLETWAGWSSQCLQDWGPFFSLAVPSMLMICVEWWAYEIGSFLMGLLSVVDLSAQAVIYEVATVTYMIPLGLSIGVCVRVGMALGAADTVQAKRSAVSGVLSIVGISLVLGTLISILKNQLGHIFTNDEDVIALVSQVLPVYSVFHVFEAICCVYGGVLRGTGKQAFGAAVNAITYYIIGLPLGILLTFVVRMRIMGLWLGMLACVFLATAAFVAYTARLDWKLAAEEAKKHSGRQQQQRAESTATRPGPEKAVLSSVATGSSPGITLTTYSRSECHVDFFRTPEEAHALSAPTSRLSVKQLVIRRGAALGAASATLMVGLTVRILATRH

SMILES: O=C(O)CCCc1ccccc1 [PB, sodium phenylbutyrate]
- IC50 (OAT1; [8]): 6.76 to 20.3 µM
- IC50 (OAT1; [9]): 6.72 to 20.2 µM
- IC50 (MATE2K): > 73900 µM
- % Remaining of TA (n = 3) Average ([1]; 0 h): 100%
- % Remaining of TA (n = 3) Average ([1]; 20 min): 97.5%
- % Remaining of TA (n = 3) Average ([1]; 1 h): 98.8%
- % Remaining of TA (n = 3) Average ([2]; 5 min): 109%
- % Remaining of TA (n = 3) Average ([2]; 20 min): 113%
- % Remaining of TA (n = 3) Average [3, 10]: 100%
- % Remaining of TA (n = 3) Average [3, 11]: 101%
- % Remaining of TA (n = 3) Average [3, 12]: 101%
- % Remaining of TA (n = 3) Average ([3]; human, microsomes, 0.5 h, 5 μM, pH 7.4): 101%
- % Remaining of TA (n = 3) Average [3, 13]: 101%
- % Remaining of TA (n = 3) Average ([4]; 0 h): 100%
- % Remaining of TA (n = 3) Average ([4]; 5 min): 103%
- % Remaining of TA (n = 3) Average ([4]; 20 min): 98.5%
- % Remaining of TA (n = 3) Average ([4]; 0.5 h): 99.6%
- % Remaining of TA (n = 3) Average ([4]; 1 h): 97.6%
- % Remaining of TA (n = 3) Average ([5]; 0 h): 100%
- % Remaining of TA (n = 3) Average ([5]; 5 min): 116%
- % Remaining of TA (n = 3) Average ([5]; 10 min): 131%
- % Remaining of TA (n = 3) Average ([5]; 20 min): 125%
- % Remaining of TA (n = 3) Average ([5]; 0.5 h): 127%
- % Remaining of TA (n = 3) Average ([5]; 1 h): 128%
- IC50 (P-gp): 1790 to 5370 µM
- fraction unbound [6]: 0.179
- IC50 (OATP1B1): 1210 to 3630 µM
- plasma concentrations remained quantifiable through [7]: 4 h

SMILES: C[C@H](CCC(=O)NCCS(=O)(=O)O)[C@H]1CC[C@H]2[C@@H]3[C@@H](O)C[C@@H]4C[C@H](O)CC[C@]4(C)[C@H]3CC[C@]12C [TUDCA, tauroursodeoxycholic acid]
- IC50 (OAT1; [8]): 0.0741 to 0.222 µM
- IC50 (OAT1; [9]): 0.07 to 0.222 µM
- IC50 (OAT1; previous study (Example 6), read-out: IC50 for in vitro inhibition of human OAT1): 0.074 to 0.222 µM
- IC50 (MATE2K): > 810 µM
- % Remaining of TA (n = 3) Average ([1]; 0 h): 100%
- % Remaining of TA (n = 3) Average ([1]; 5 min): 101%
- % Remaining of TA (n = 3) Average ([1]; 10 min): 110%
- % Remaining of TA (n = 3) Average ([1]; 20 min): 99.7%
- % Remaining of TA (n = 3) Average ([1]; 0.5 h): 101%
- % Remaining of TA (n = 3) Average ([1]; 1 h): 87.2%
- % Remaining of TA (n = 3) Average ([2]; 0 h): 100%
- % Remaining of TA (n = 3) Average [3, 10]: 100%
- % Remaining of TA (n = 3) Average [3, 11]: 106%
- % Remaining of TA (n = 3) Average ([3]; human, microsomes, 10 min, 5 μM, pH 7.4): 93.0%
- % Remaining of TA (n = 3) Average [3, 12]: 93.1%
- % Remaining of TA (n = 3) Average [3, 13]: 94.5%
- % Remaining of TA (n = 3) Average ([3]; reversible incubation condition, CYP2C19 (+NADPH, +N3B), 30 min): 92.1%
- % Remaining of TA (n = 3) Average ([4]; 0 h): 100%
- % Remaining of TA (n = 3) Average ([4]; 5 min): 102%
- % Remaining of TA (n = 3) Average ([4]; 10 min): 96.9%
- % Remaining of TA (n = 3) Average ([4]; 20 min): 92.8%
- % Remaining of TA (n = 3) Average ([4]; 0.5 h): 95.0%
- % Remaining of TA (n = 3) Average ([4]; 1 h): 95.3%
- % Remaining of TA (n = 3) Average ([5]; 0 h): 100%
- % Remaining of TA (n = 3) Average ([5]; 5 min): 123%
- % Remaining of TA (n = 3) Average ([5]; 10 min): 123%
- % Remaining of TA (n = 3) Average ([5]; 20 min): 121%
- % Remaining of TA (n = 3) Average ([5]; 0.5 h): 120%
- % Remaining of TA (n = 3) Average ([5]; 1 h): 128%
- IC50 (P-gp): 222 to 667 µM
- fraction unbound [6]: 0.015
- IC50 (OATP1B1): 12.9 to 38.7 µM
- mean endogenous plasma levels over the 24 hour time course [7]: 130 to 222 ng/mL

Reference: patent US20230277630A1, “METHODS AND COMPOSITIONS FOR TREATING AMYOTROPHIC LATERAL SCLEROSIS” (Amylyx Pharmaceuticals, Inc., priority 2022, published 2023)
